Where a SMILES comes first, the peptide text is derived from it. The star is where a group is joined. Cbz = O=C(OCc1ccccc1)*
How the values were obtained:
HCT116 cells [1] = test: Clearance of protein aggregates: puromycin with Bafilomycin or MG132; assay type: cell-based; conditions: with 5 μg/ml puromycin 4 h; 200 nM Bafilomycin or 5 μM MG132
Method: Cells were fixed and stained for ubiquitin and p62. A representative experiment is shown (n=3).
HCT116 cells were treated with 5 μg/ml puromycin for 4 h alone or in combination with 200 nM Bafilomycin-1 or 5 μM MG132. Cells were fixed and stained for ubiquitin and p62. A representative experiment is shown (n=3) (see FIG. 3A). The double positive puncta per cell was quantified (see FIG. 3B).

HCT116 cells; BE2C cells = test: Ubiquitin and p62 co-stained aggregates per cell after puromycin, by DCAF15 genotype; assay type: cell-based; conditions: 5 μg/ml puromycin, 4 h; DCAF15−/− vs WT and reconstituted cell lines
Method: Cells were stained for ubiquitinated proteins and p62. Separate and merged channels from a representative experiment are shown (n>3).
HCT116 cells with indicated genotypes were treated with 5 μg/ml puromycin for 4 h or left untreated (NT) before fixation. Cells were stained for ubiquitinated proteins and p62. Separate and merged channels from a representative experiment are shown (n>3) (see FIG. 1A). The number of ubiquitin and p62 co-stained aggregates per cell were quantified (see FIG. 1B.).
BE2C cells with indicated genotypes were treated and analysed as above (n=3). Separate and merged channels from a representative experiment are shown (n>3) (see FIG. 1C). The number of ubiquitin and p62 co-stained aggregates per cell were quantified (see FIG. 1D.).
Cell lines: WT (wild-type), DCAF15−/− (CRISPR-mediated stable DCAF15−/− knock-out cells), DCAF15−/−+WT 3xF (DCAF15−/− cells reconstituted with WT DCAF15 with 3×flag-tag).

HCT116 cells [2] = test: Proliferation (confluency) and clonogenic survival after puromycin, by DCAF15 genotype; assay type: cell-based; conditions: 5 μg/ml puromycin 4 h
Method: Confluency was recorded with imaging every 4 h. Representative experiments with technical triplicates are shown (n=3).
HCT116 cells were treated with 5 μg/ml puromycin for 4 h or left untreated before being released into normal growth media for 72 h. Confluency was recorded with imaging every 4 h, representative experiments with technical triplicates (n=3) are shown (see FIG. 4A.). HCT116 cells were treated with 5 μg/ml puromycin for 4 h before release into full media or left untreated for 7 days before fixation and crystal violet staining (see FIG. 4B.). Quantification of FIG. 4B as integrated density per well (see FIG. 4C).

DCAF15 = conditions: Han et al., 2017 and WO 2022/169755; cited from earlier work
human cancer cell lines = conditions: cited from earlier work

Compound | aggregate numbers in WT and reconstituted cell lines (HCT116 cells [1]) | re-appearance of aggregates in DCAF15−/− cells (HCT116 cells [1]) | ligand for DCAF15 (DCAF15) | also measured
CO/C1=C\C(C)=C\[C@@H](C)[C@@H](O)[C@@H](C)C/C(C)=C/C=C/[C@H](OC)[C@@H]([C@@H](C)[C@@H](O)[C@H](C)[C@@]2(O)C[C@@H](O)[C@H](C)[C@@H](C(C)C)O2)OC1=O [Bafilomycin A1] | enhance aggregate numbers in WT and reconstituted cell lines | we do not detect any re-appearance of aggregates in DCAF15−/− cells after treatments |  | 
CC(C)C[C@@H](C=O)NC(=O)[C@H](CC(C)C)NC(=O)[C@H](CC(C)C)NC(=O)OCc1ccccc1 [MG132] (Cbz-Leu-Leu-Leu-aldehyde) | enhance aggregate numbers in WT and reconstituted cell lines | we do not detect any re-appearance of aggregates in DCAF15−/− cells after treatments |  | 
COc1ccc(C[C@H](N)C(=O)N[C@H]2[C@@H](O)[C@H](n3cnc4c(N(C)C)ncnc43)O[C@@H]2CO)cc1 [Puromycin, puromycin] |  |  |  | protein aggregation (co-localization of ubiquitin and p62) (HCT116 cells; BE2C cells): significant reduction of aggregates in DCAF15−/− cells relative to WT and reconstituted cell lines; clonogenic survival, sensitivity of DCAF15−/− cells (HCT116 cells [2]; 7 days, crystal violet (FIGS. 4B and 4C)): insensitivity of DCAF15−/− cells to puromycin-induced toxicity; proliferation of DCAF15−/− cells (HCT116 cells [2]; release for 72 h (FIG. 4A)): DCAF15−/− cells remain undeterred by puromycin treatment; proliferation rates in WT and reconstituted cell lines (HCT116 cells [2]; release for 72 h (FIG. 4A)): significantly reduced proliferation rates
NS(=O)(=O)c1ccc(S(=O)(=O)Nc2cccc3c(Cl)c[nH]c23)cc1 [indisulam] |  |  | act as ligands for DCAF15 | inhibition of proliferation (human cancer cell lines): inhibits the proliferation of certain human cancer cell lines
O=C(NS(=O)(=O)c1ccc(Br)s1)c1ccc(Cl)cc1Cl [tasisulam] |  |  | act as ligands for DCAF15 | 
